For one experiment, the system named is Dermacetor variabilis. Description: Tick attachment to rabbit ear, Dermacetor variabilis. It is filed as in vivo. How it is done: To determine the effect of DEET on tick attachment and feeding we used two species of ticks Amblyoma americanum and Dermacetor variabilis purchased from University of Oklahoma. Ticks were allowed to feed on the ears of male New Zealand white rabbits purchased from Charles River. For feeding, five ticks were introduced into a 60 μm sieve cell well (Fisher Scientific) which was attached to the ear of the rabbit with nail glue. Ticks were observed every 30 minutes for the first eight hours to assess skin attachment and feeding behavior. Tick attachment was defined as the minimum time required for 3 of the 5 ticks to attach to the ear. […] The observation was continued for 72 hours for both species of ticks. Separate rabbits were used for each species and for each treatment. […] All the ticks in this study were active until attachment.
In this series of experiments, the protective effect(s) of different concentrations of DEET and Lipodeet on the attachment of nymphs and adults of two species of ticks, A. americanum and D. variabilis, to the rabbit ear was evaluated. Experiments were set up wherein different concentrations (20% or 40% of DEET or Lipodeet were applied (0.2 ml of the samples to 10 cm^2 surface area), onto the dorsal side of the ear lobes of a rabbit. After allowing the preparation to dry for 30 min., sieve cups (Fisher Scientific, 1″ inner diameter) were then attached to the ear lobes using nail glue. Ten nymphs or five adult ticks were then introduced into the sieve cups every 24 hrs through a small slit made on the sieve membrane. Attachment of ticks to the skin was monitored every 24 hrs. for up to 72 hrs. after introduction of the ticks.
More than 60% of ticks used in our experiments were dead after contact with Lipodeet. Although a well-aerated sieve cup was used (1″ inner diameter), we initially thought that the tick mortality may be due to possible DEET vapor trapped within the sieve cup. Therefore, we designed experiments where one half of the surface area of skin within the sieve cup was treated with 40% Lipodeet and the other half was left untreated. Five adults ticks of A. americanum were then introduced into the sieve cups every 24 hrs. After 72 hrs., the sieve cups were removed.

Another experiment concerns cercariae of S. mansoni. Nature of the experiment: Cercarial penetration through mouse skin and worm establishment, application before infection (compressed organ autoradiography). The class given is in vivo, Schistosoma mansoni. As to conditions: for protection against schistosomiasis: 10% DEET. An excerpt: For in vivo animal experiments, male mice of the CD1 strain, weighing approximately 18-20 grams, purchased from Charles River Laboratories (Wilmington, Mass.) were used. The use of animals in these experiments were in compliance with the Animal Welfare Act and other Federal statues and regulations relating to animals as stated in the National Institute of Health publication: Guide for the Care and Use of Laboratory Animals. Mice were infected individually with schistosome cercariae via either tail skin or via shaved abdominal skin. For infection via tail skin, the mouse was restrained in a cage and the tail was dipped for 60 minutes in a tube containing 250-300 ^35S-labeled cercariae suspended in 10 ml of distilled water at room temperature. For infection via abdominal skin, the mouse was restrained on its back. After shaving the abdominal skin, 150-200 ^35S-labeled cercariae were applied to the skin in a drop of distilled water, covered with a cover slip and exposed for 30 minutes.
To determine skin penetration and worm establishment, whole tail skin or the area of abdominal skin that was exposed to the cercariae as described above and the lungs were removed from each mouse on day seven after infection and processed for compressed organ autoradiography techniques as described previously (Li J W et al., Parasitology International 46: 55-65 (1997)). Briefly, the skin and lungs were mounted on a cardboard sheet, covered with plastic wrap and kept under a tissue press for 48 hrs at room temperature. The pressed and dried tissue was then exposed to X-ray film (Fuji RX, Fisher Scientific, Pittsburgh, Pa.) at −70° C. for 7-9 days. Following autoradiographic development, the dark spots (which represent reduced silver foci on film) were counted and percent worm establishment was calculated (number of spots/total number of cercariae used for infection X 100).
For application of DEET to the tail skin, mice were individually kept in restraining cages and their tail was dipped in 7.5% DEET solution (prepared in isopropanol) for 5 min. Following application the skin was air dried for 30 min, and rinsed in distilled water for 1 min before exposure to radio-labeled cercariae of S. mansoni as mentioned in Example 3.
For application of DEET to the abdominal skin, mice were restrained to the back and their abdomen shaved. 200 μl of an appropriate concentration of DEET in isopropanol solution was dropped on to the abdomen and allowed to dry for 15 min. After drying, the skin was washed for 1 min with distilled water and exposed to radio-labeled cercariae for 30 min.
Experiments were also conducted to see how long the cercaricidal activity of DEET remained in the skin after a single application. In these experiments 10% DEET was applied to the shaved abdominal skin of mice and was allowed to dry. Thirty minutes after DEET application, the area of skin was washed continuously for one minute with running distilled water. At different time points (30 min, 1 hr, 4 hrs, and 24 hrs) after DEET application, mice were infected with radio-labeled cercariae (as described in Example 2) and worm establishment was determined by compressed organ autoradiography (as described in Example 3).

Where [1] appears, read: 7.5% DEET applied to skin before infection, mice, day 7, n = 10.

Several values for one entry are separate records, joined by “and”; a condition that tells them apart may be missing. Equal entries are not always repeated.

In the case of `CCN(CC)C(=O)c1cccc(C)c1` [DEET, N,N-diethyl-m-toluamide], the “initial time with no tick attachment” value in the experiment with Dermacetor variabilis (10% DEET on rabbit ear, normal rabbits 4.5 hours) was 7.0 h. Further, the “time effective in preventing attachment of adult ticks” value in the experiment on Dermacetor variabilis (20%, adults) is “up to 24 hrs”. In the experiment on Dermacetor variabilis (20%, nymphs), the “time effective in preventing attachment of nymphs” value is on record as “up to 48 hrs”. Moreover, the “effect of raising concentration, adult ticks” value in the experiment on Dermacetor variabilis (40% versus 20%, adults) was “slightly more effective at 48 hrs”. In the experiment with Dermacetor variabilis (40% versus 20%, nymphs), the “effect of raising concentration, nymphs” value is reported as “no added advantage against nymphs”. For the same molecule, the “protection against cercarial penetration” value in the experiment on cercariae of S. mansoni (5% DEET applied to mouse skin) was found to be 72%. The “Percent Worm Established, Lungs” value with cercariae of S. mansoni (setting [1]) stood at 0. The “Percent Worm Established, Skin” value in the experiment with cercariae of S. mansoni (setting [1]) is 0.13 ± 0.01%. The “Percent Worm Established, Total” value in the experiment on cercariae of S. mansoni (setting [1]) was 0.13% and 0.13 ± 0.01%. In addition, the protection against schistosomiasis is reported as 100% in the experiment on cercariae of S. mansoni (infection 30 min after application, skin washed one minute); “no protection at all” with cercariae of S. mansoni (infection 24 hrs after application); 85±1% in the experiment on cercariae of S. mansoni (infection four hours after application); 98±1% in the experiment with cercariae of S. mansoni (infection one hour after application). The “effectiveness in preventing the entry of cercaria into the mouse skin” value in the experiment with cercariae of S. mansoni (DEET at 10, 20 or 40%) was 100%.

Source of the values: patent publication US6447801B1, “Anti-parasitic action of N,N-diethyl-m-toluamide (deet) and formulations that prolong its activity in the skin” (priority 1997, dated 2002).
